Target: T1, human GPR119 (hGPR119) (Homo sapiens, UniProt Q8TDV5)
T1 construct: expressed in transfected cells
T1 sequence (Q8TDV5 1-335): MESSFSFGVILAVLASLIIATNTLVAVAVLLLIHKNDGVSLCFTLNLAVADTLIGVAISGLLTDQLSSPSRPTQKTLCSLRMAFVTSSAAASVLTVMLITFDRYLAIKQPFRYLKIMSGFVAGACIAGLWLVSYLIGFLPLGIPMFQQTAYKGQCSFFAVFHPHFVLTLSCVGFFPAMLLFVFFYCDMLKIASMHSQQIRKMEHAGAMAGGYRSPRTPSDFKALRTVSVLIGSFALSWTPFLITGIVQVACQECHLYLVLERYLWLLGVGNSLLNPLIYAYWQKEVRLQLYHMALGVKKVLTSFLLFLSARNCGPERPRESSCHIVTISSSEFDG
Test: cAMP accumulation assay (cAMP Gs dynamic HTRF kit)
Format: cell-based
Details: CHO-K1 cells stably expressing hGPR119, 4-parameter fit; for Emax: 1 h, % activity normalized to Max/Min controls; for EC50: cAMP accumulation
In short: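 Read-out is HTRF 665/620 nm ratio after 1 h detection at ambient temperature, converted to % activity against positive and negative controls, EC50 and Max activity by 4-parameter fit. Compounds were titrated onto ~10,000 thawed hGPR119-CHO-K1 cells/well for 60 min at 37° C/5% CO2.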

Emax | EC50 | Compound
100 to 130% | ≤ 100 nM | COCC1(C(=O)NC[C@H](O)[C@@H](O)[C@H](O)[C@H](O)CO)CCN(C(=O)Cc2ccc(OCCCC3CCN(c4ncc(Cl)cn4)CC3)cc2F)C1 (stereo partly drawn) [Example 136, 1-[2-[4-[3-[1-(5-chloropyrimidin-2-yl)-4-piperidyl]propoxy]-2-fluoro-phenyl]acetyl]-3-(methoxymethyl)-N-[(2S,3R,4R,5R)-2,3,4,5,6-pentahydroxyhexyl]pyrrolidine-3-carboxamide]
100 to 130% | ≤ 100 nM | COCC1(C(=O)NCC(CO)(CO)CO)CCN(C(=O)Cc2ccc(OCCCC3CCN(c4ncc(Cl)cn4)CC3)cc2F)C1 (stereo not drawn) [Example 137, 1-[2-[4-[3-[1-(5-chloropyrimidin-2-yl)-4-piperidyl]propoxy]-2-fluoro-phenyl]acetyl]-N-[3-hydroxy-2,2-bis(hydroxymethyl)propyl]-3-(methoxymethyl)pyrrolidine-3-carboxamide]
50 to 100% | 1000 to 10000 nM | O=C(Cc1ccc(OCCC2CCC23CCN(c2ncc(Cl)cn2)CC3)cc1F)N1CC(CNC[C@H](O)[C@@H](O)[C@H](O)[C@H](O)CO)C1 (stereo partly drawn) [Example 138, 2-[4-[2-[7-(5-chloropyrimidin-2-yl)-7-azaspiro[3.5]nonan-3-yl]ethoxy]-2-fluoro-phenyl]-1-[3-[[[(2S,3R,4R,5R)-2,3,4,5,6-pentahydroxyhexyl]amino]methyl]azetidin-1-yl]ethanone]
100 to 130% | 100 to 1000 nM | O=C(Cc1c(F)cc(OCCC2CCC23CCN(c2ncc(Cl)cn2)CC3)cc1F)N1CC(CNC[C@H](O)[C@@H](O)[C@H](O)[C@H](O)CO)C1 (stereo partly drawn) [Example 139, 2-[4-[2-[7-(5-chloropyrimidin-2-yl)-7-azaspiro[3.5]nonan-3-yl]ethoxy]-2,6-difluoro-phenyl]-1-[3-[[[(2S,3R,4R,5R)-2,3,4,5,6-pentahydroxyhexyl]amino]methyl]azetidin-1-yl]ethanone]
< 50% | > 10000 nM | CC(C)OC(=O)N1CCC2(CCC2CCOc2ccc(CC(=O)N3CC(CNC[C@H](O)[C@@H](O)[C@H](O)[C@H](O)CO)C3)c(F)c2)CC1 (stereo partly drawn) [Example 140, isopropyl 3-[2-[3-fluoro-4-[2-oxo-2-[3-[[[(2S,3R,4R,5R)-2,3,4,5,6-pentahydroxyhexyl]amino]methyl]azetidin-1-yl]ethyl]phenoxy]ethyl]-7-azaspiro[3.5]nonane-7-carboxylate]
50 to 100% | 1000 to 10000 nM | CC(C)OC(=O)N1CCC2(CCC2CCOc2cc(F)c(CC(=O)N3CC(CNC[C@H](O)[C@@H](O)[C@H](O)[C@H](O)CO)C3)c(F)c2)CC1 (stereo partly drawn) [Example 141, isopropyl 3-[2-[3,5-difluoro-4-[2-oxo-2-[3-[[[(2S,3R,4R,5R)-2,3,4,5,6-pentahydroxyhexyl]amino]methyl]azetidin-1-yl]ethyl]phenoxy]ethyl]-7-azaspiro[3.5]nonane-7-carboxylate]
100 to 130% | 100 to 1000 nM | O=C(Cc1ccc(OCCCC2CC23CCN(c2ncc(Cl)cn2)CC3)cc1F)N1CC(CNC[C@H](O)[C@@H](O)[C@H](O)[C@H](O)CO)C1 (stereo partly drawn) [Example 142, 2-[4-[3-[6-(5-chloropyrimidin-2-yl)-6-azaspiro[2.5]octan-2-yl]propoxy]-2-fluoro-phenyl]-1-[3-[[[(2S,3R,4R,5R)-2,3,4,5,6-pentahydroxyhexyl]amino]methyl]azetidin-1-yl]ethanone]
100 to 130% | 100 to 1000 nM | O=C(Cc1c(F)cc(OCCCC2CC23CCN(c2ncc(Cl)cn2)CC3)cc1F)N1CC(CNC[C@H](O)[C@@H](O)[C@H](O)[C@H](O)CO)C1 (stereo partly drawn) [Example 143]
100 to 130% | 1000 to 10000 nM | O=C(Cc1ccc(OCCCC2CCC23CCN(c2ncc(Cl)cn2)CC3)cc1F)N1CC(CNC[C@H](O)[C@@H](O)[C@H](O)[C@H](O)CO)C1 (stereo partly drawn) [Example 144, 2-[4-[3-[7-(5-chloropyrimidin-2-yl)-7-azaspiro[3.5]nonan-3-yl]propoxy]-2-fluoro-phenyl]-1-[3-[[[(2S,3R,4R,5R)-2,3,4,5,6-pentahydroxyhexyl]amino]methyl]azetidin-1-yl]ethanone]

Source: patent US20230061736A1, “GPR119 AGONISTS” (Kallyope, Inc., priority 2019, published 2023)
